Data published in patent publication EP0282292B1, “Improved chelator for anaerobic sealants” (LOCTITE (IRELAND) Ltd., priority 1987, dated 1988).
Like-named read-outs stand apart in the source and are kept apart here.

Experiments:
[1] = Stability at 82°C (time to first gellation) of curable formulation spiked with copper; details: for level of chelator able to counteract added copper: 0.5 ppm of added copper; for stability (time to first gellation): 82°C, spiked with copper after one week at room temperature, supernatant only
[2] = anaerobic sealant formulation with acidic components

SMILES	level of chelator able to counteract added copper [1]	stability (time to first gellation) [1]	time to precipitation from solution after addition [2]	chelator concentration, Sampled after 0.5hr. standing-supernatant liquid taken (1% Maleic Acid in PEGMA)	chelator concentration, Stirred 0.5hr. mixture sampled (1% Maleic Acid in PEGMA)	chelator concentration, supernatant after 4 days standing (1% Maleic Acid in PEGMA)	chelator concentration, supernatant after 5 days standing (1% Maleic Acid in PEGMA)	chelator concentration, Sampled after 0.5hr. standing-supernatant liquid taken (3% Saccharin in PEGMA)	chelator concentration, Stirred 0.5hr. mixture sampled (3% Saccharin in PEGMA)	chelator concentration, supernatant after 4 days standing (3% Saccharin in PEGMA)	chelator concentration, supernatant after 5 days standing (3% Saccharin in PEGMA)
CC(O)CN(CCN(CC(C)O)CC(C)O)CC(C)O (stereo not shown) [EDTPA, tetrakis-(2-hydroxy-propyl)-ethylenediamine]	300 ppm	no loss of chelation efficiency on aging	–	–	–	–	–	–	–	–	–
O=C([O-])CN(CCN(CC(=O)[O-])CC(=O)[O-])CC(=O)[O-].[Na+].[Na+].[Na+].[Na+] [EDTA Na₄, ethylenediaminetetraacetic acid tetrasodium salt]	–	–	≤ 24 h	–	–	–	–	–	–	–	–
O=C([O-])CN(CCO)CCN(CC(=O)[O-])CC(=O)[O-].[Na+].[Na+].[Na+] [HEDTA Na₃, N-hydroxyethylenediaminetriacetic acid trisodium salt]	300 ppm	no loss of chelation efficiency on aging	–	110 ppm	826 ppm	175 ppm	180 ppm	65 ppm	904 ppm	69 ppm	75 ppm
